The target in assay [1] is T1, MTHFD1 recombinant human enzyme (Homo sapiens, UniProt P11586).
T1 sequence (P11586 2-291 limits assumed): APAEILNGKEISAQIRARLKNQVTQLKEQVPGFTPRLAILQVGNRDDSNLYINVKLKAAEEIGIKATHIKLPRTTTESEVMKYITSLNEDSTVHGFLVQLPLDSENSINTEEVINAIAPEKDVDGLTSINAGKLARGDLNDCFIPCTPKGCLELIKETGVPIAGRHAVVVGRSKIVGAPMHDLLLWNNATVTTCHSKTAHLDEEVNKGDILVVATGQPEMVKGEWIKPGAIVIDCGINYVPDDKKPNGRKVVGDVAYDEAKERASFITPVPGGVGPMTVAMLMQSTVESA
As to the kind of experiment: MTHFD1 inhibition assay (NAD(P)H-Glo luminescence). Conditions: MTHFD1 IC50, recombinant human enzyme 200 nM, NADP, band.

Assay [2] concerns the target T2, MTHFD2 recombinant human enzyme (Homo sapiens, UniProt P13995).
T2 sequence (P13995 36-350): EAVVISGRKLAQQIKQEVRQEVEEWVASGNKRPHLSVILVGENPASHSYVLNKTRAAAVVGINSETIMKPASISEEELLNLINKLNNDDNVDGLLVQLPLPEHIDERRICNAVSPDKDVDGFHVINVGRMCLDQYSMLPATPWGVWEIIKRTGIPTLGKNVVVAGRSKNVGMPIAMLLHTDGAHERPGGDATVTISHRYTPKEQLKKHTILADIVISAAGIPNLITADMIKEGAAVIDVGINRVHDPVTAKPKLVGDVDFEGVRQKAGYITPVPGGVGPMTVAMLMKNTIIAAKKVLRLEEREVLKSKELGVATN
The assay is described as follows: MTHFD2 inhibition assay (NAD(P)H-Glo luminescence). Conditions: for MTHFD1/MTHFD2 IC50 ratio: selectivity of MTHFD2 inhibition over MTHFD1, band.

In general, IC50 refers to the concentration that gives 50% inhibition. Turning to `COC[C@H]1CN(c2ccc3c4c(c(=O)oc3c2Cl)CN(C(=O)c2ccc(C(=O)NS(=O)(=O)N3CCCC3)c(OC3CCC3)c2)CC4)CCN1C` [Example 14, (R)-4-(7-chloro-8-(3-(methoxymethyl)-4-methylpiperazin-1-yl)-5-oxo-1,3,4,5-tetrahydro-2H-chromeno[3,4-c]pyridine-3-carbonyl)-2-cyclobutoxy-N-(pyrrolidin-1-ylsulfonyl)benzamide], the IC50 in assay [1] lay within 0.01 to 0.1 µM. Also, in assay [2], the IC50 was in the range of 0.01 to 0.1 µM and the “MTHFD1/MTHFD2 IC50 ratio” value is listed as “F (<3)”.

On to `COC[C@H]1CN(c2ccc3c4c(c(=O)oc3c2C)CN(C(=O)c2ccc(C(=O)NS(=O)(=O)N(C)C)c(N3C5CCC3CC5)c2)CC4)CCN1C` [Example 16, (R)-2-(7-azabicyclo[2.2.1]heptan-7-yl)-N-(N,N-dimethylsulfamoyl)-4-(8-(3-(methoxymethyl)-4-methylpiperazin-1-yl)-7-methyl-5-oxo-1,3,4,5-tetrahydro-2H-chromeno[3,4-c]pyridine-3-carbonyl)benzamide], for which the IC50 in assay [1] and in assay [2] was 0.001 to 0.01 µM throughout. In addition, the “MTHFD1/MTHFD2 IC50 ratio” value in assay [2] is “F (<3)”.

On to `COC[C@H]1CN(c2ccc3c4c(c(=O)oc3c2C)CN(C(=O)c2ccc(C(=O)NS(=O)(=O)C3(C)CC3)c(N3C5CCC3CC5)c2)CC4)CCN1C` [Example 17, (R)-2-(7-azabicyclo[2.2.1]heptan-7-yl)-4-(8-(3-(methoxymethyl)-4-methylpiperazin-1-yl)-7-methyl-5-oxo-1,3,4,5-tetrahydro-2H-chromeno[3,4-c]pyridine-3-carbonyl)-N-((1-methylcyclopropyl)sulfonyl)benzamide], for which the figures for the IC50 in assay [1] and in assay [2] were 0.001 to 0.01 µM and 0.01 to 0.1 µM, respectively. The “MTHFD1/MTHFD2 IC50 ratio” value in assay [2] is listed as “F (<3)”.

On to `Cc1c(N2CCN3CCOC[C@H]3C2)ccc2c3c(c(=O)oc12)CN(C(=O)c1ccc(C(=O)NS(=O)(=O)N2CCCC2)c(OC2CCC2)c1)CC3` [Example 19, (R)-2-cyclobutoxy-4-(8-(hexahydropyrazino[2,1-c][1,4]oxazin-8(1H)-yl)-7-methyl-5-oxo-1,3,4,5-tetrahydro-2H-chromeno[3,4-c]pyridine-3-carbonyl)-N-(pyrrolidin-1-ylsulfonyl)benzamide], for which, in assay [1], the IC50 was in the range of 0.1 to 1 µM. Also, in assay [2], the IC50 fell in the range of 0.1 to 1 µM and the “MTHFD1/MTHFD2 IC50 ratio” value is reported as “F (<3)”.

Take `Cc1c(N2CCN3CCOC[C@H]3C2)cc(C)c2c3c(c(=O)oc12)CN(C(=O)c1ccc(C(=O)NS(=O)(=O)N2CCCC2)c(OC2CCC2)c1)CC3` [Example 21, (R)-2-cyclobutoxy-4-(8-(hexahydropyrazino[2,1-c][1,4]oxazin-8(1 H)-yl)-7,10-dimethyl-5-oxo-1,3,4,5-tetrahydro-2H-chromeno[3,4-c]pyridine-3-carbonyl)-N-(pyrrolidin-1-ylsulfonyl)benzamide]: the IC50 in assay [1] lay within 0.1 to 1 µM. In assay [2], the IC50 fell in the range of 0.1 to 1 µM and the “MTHFD1/MTHFD2 IC50 ratio” value is “F (<3)”.

As to `COC[C@H]1CN(c2ccc3c4c(c(=O)oc3c2C)CN(C(=O)c2cc(F)c(C(=O)NS(=O)(=O)N(C)C)c(N3C5CCC3CC5)c2)CC4)CCN1C` [Example 23, (R)-2-(7-azabicyclo[2.2.1]heptan-7-yl)-N-(N,N-dimethylsulfamoyl)-6-fluoro-4-(8-(3-(methoxymethyl)-4-methylpiperazin-1-yl)-7-methyl-5-oxo-1,3,4,5-tetrahydro-2H-chromeno[3,4-c]pyridine-3-carbonyl)benzamide], the IC50 in assay [1] and in assay [2] was 0.001 to 0.01 µM in each case. Further, the “MTHFD1/MTHFD2 IC50 ratio” value in assay [2] is “F (<3)”.

`COC[C@H]1CN(c2ccc3c4c(c(=O)oc3c2C)CN(C(=O)c2cc(F)c(C(=O)NS(=O)(=O)C3(C)CC3)c(N3CC5CC5C3)c2)CC4)CCN1C` (stereo partly drawn) [Example 26, 2-(3-azabicyclo[3.1.0]hexan-3-yl)-6-fluoro-4-(8-((R)-3-(methoxymethyl)-4-methylpiperazin-1-yl)-7-methyl-5-oxo-1,3,4,5-tetrahydro-2H-chromeno[3,4-c]pyridine-3-carbonyl)-N-((1-methylcyclopropyl)sulfonyl)benzamide]: the IC50 in assay [1] was in the range of 0.001 to 0.01 µM. Also, in assay [2], the IC50 lay within 0.001 to 0.01 µM and the “MTHFD1/MTHFD2 IC50 ratio” value was “F (<3)”.

Take `COC[C@H]1CN(c2ccc3c4c(c(=O)oc3c2C)CN(C(=O)c2cc(F)c(C(=O)NS(=O)(=O)N(C)C)c(N3CC5CC5C3)c2)CC4)CCN1C` (stereo partly drawn) [Example 27, 2-(3-azabicyclo[3.1.0]hexan-3-yl)-N-(N,N-dimethylsulfamoyl)-6-fluoro-4-(8-((R)-3-(methoxymethyl)-4-methylpiperazin-1-yl)-7-methyl-5-oxo-1,3,4,5-tetrahydro-2H-chromeno[3,4-c]pyridine-3-carbonyl)benzamide]: the IC50 in assay [1] was in the range of 0.001 to 0.01 µM. Moreover, in assay [2], the IC50 was in the range of 0.001 to 0.01 µM and the “MTHFD1/MTHFD2 IC50 ratio” value was “F (<3)”.

As to `COC[C@H]1CN(c2cc(C)c3c4c(c(=O)oc3c2C)CN(C(=O)c2cc(F)c(C(=O)NS(=O)(=O)N(C)C)c(N3CC5CC5C3)c2)CC4)CCN1C` (stereo partly drawn) [Example 28, 2-(3-azabicyclo[3.1.0]hexan-3-yl)-N-(N,N-dimethylsulfamoyl)-6-fluoro-4-(8-((R)-3-(methoxymethyl)-4-methylpiperazin-1-yl)-7,10-dimethyl-5-oxo-1,3,4,5-tetrahydro-2H-chromeno[3,4-c]pyridine-3-carbonyl)benzamide], the IC50 in assay [1] is 0.001 to 0.01 µM. Further, in assay [2], the IC50 lay in the range of 0.001 to 0.01 µM and the “MTHFD1/MTHFD2 IC50 ratio” value was “F (<3)”.

With `COC[C@H]1CN(c2ccc3c4c(c(=O)oc3c2Cl)CN(C(=O)c2ccc(C(=O)NS(=O)(=O)N(C)C(C)C)c(OC3CCCC3)c2F)CC4)CCN1C` [Example 29, (R)-4-(7-chloro-8-(3-(methoxymethyl)-4-methylpiperazin-1-yl)-5-oxo-1,3,4,5-tetrahydro-2H-chromeno[3,4-c]pyridine-3-carbonyl)-2-(cyclopentyloxy)-3-fluoro-N-(N-isopropyl-N-methylsulfamoyl)benzamide], the IC50 in assay [1] lay within 0.01 to 0.1 µM. In addition, in assay [2], the IC50 was 0.01 to 0.1 µM and the “MTHFD1/MTHFD2 IC50 ratio” value was “F (<3)”.

As to `COC[C@H]1CN(c2ccc3c4c(c(=O)oc3c2Cl)CN(C(=O)c2ccc(C(=O)NS(=O)(=O)N(C)C(C)C)c(OC3CCC3)c2F)CC4)CCN1C` [Example 30, (R)-4-(7-chloro-8-(3-(methoxymethyl)-4-methylpiperazin-1-yl)-5-oxo-1,3,4,5-tetrahydro-2H-chromeno[3,4-c]pyridine-3-carbonyl)-2-cyclobutoxy-3-fluoro-N-(N-isopropyl-N-methylsulfamoyl)benzamide], the IC50 in assay [1] lay within 0.01 to 0.1 µM. For the same compound, in assay [2], the IC50 lay within 0.01 to 0.1 µM and the “MTHFD1/MTHFD2 IC50 ratio” value was “F (<3)”.

For `COC[C@H]1CN(c2ccc3c4c(c(=O)oc3c2C)CN(C(=O)c2ccc(C(=O)NS(=O)(=O)N(C)C(C)C)c(N3CCCC3)c2)CC4)CCN1C` [Example 31, (R)-N-(N-isopropyl-N-methylsulfamoyl)-4-(8-(3-(methoxymethyl)-4-methylpiperazin-1-yl)-7-methyl-5-oxo-1,3,4,5-tetrahydro-2H-chromeno[3,4-c]pyridine-3-carbonyl)-2-(pyrrolidin-1-yl)benzamide], the IC50 in assay [1] was in the range of 0.01 to 0.1 µM. In assay [2], the IC50 was in the range of 0.001 to 0.01 µM and the “MTHFD1/MTHFD2 IC50 ratio” value was “G (^ 3 to 9.0)”.
